Laboratory results taken from patent publication US5440041A, “Acetal or ketal substituted xanthine compounds” (Cell Therapeutics, Inc., priority 1994, dated 1995).
Like-named read-outs stand apart in the source and are kept apart here.

What was measured:
[1] = tested on: polymorphonuclear leukocytes; settings: in response to a stimulator of chemotaxis; U.S. Pat. No. 4,636,507; cited from earlier work
[2] = U.S. Pat. Nos. 4,515,795 and 4,576,947; cited from earlier work
[3] = tested on: VCAM; assay: Cell surface expression of VCAM in TNF-α-stimulated HUVEC (flow cytometry); format: cell-based, human; settings: TNF-α (20 ng/ml) for 20 hrs; mean fluorescence intensity; FIG. 6
Description: Drug inhibitory activity can also be measured by determining levels of vascular cell adhesion molecule (VCAM) in stimulated cells. Early passage human umbilical vein endothelial cells (HUVEC) (obtained from commercial suppliers such as Cell Systems, Inc. or Clonetics) are cultured in media (e.g., Hepes buffered media, Cell Systems) containing 10% fetal bovine serum, and supplemented with a stimulating agent, such as fibroblast growth factor (acidic FGF, Cell Systems, Inc.) or TNF. The cells are plated into wells of a microliter plate (e.g., 5×10^4 per well) and allowed to incubate at 37° C. for 72 hrs. […] After 30 min on ice, the cells are washed twice and analyzed on a flow cytometer (Coulter Elite®) at appropriate emission and excitation wavelengths (e.g., for phycoerythrin use excitation at 488 nm and emission at […]).
The cells were stimulated with TNF-α(20 ng/ml) for 20 hrs and then stained for immunofluorescence using a monoclonal antibody recognizing VCAM, followed by a goat anti-mouse antibody conjugated to phycoerythrin. The cells were analyzed for antibody binding using flow cytometry.

[4] = tested on: PBMC (peripheral blood mononuclear cells); assay: Two-way mixed lymphocyte reaction (MLR); format: cell-based, human; settings: FIG. 1, FIG. 8
Excerpt: Various in vitro assays can be used to measure effects of the inventive compounds to modulate immune activity and have antitumor activity using a variety of cellular types. For example, a mixed lymphocyte reaction (MLR) provides a valuable screening tool to determine biological activity of each inventive compound. In the MLR, PBMCs (peripheral blood mononuclear cells) are obtained by drawing whole blood from healthy volunteers in a heparinized container and diluted with an equal volume of hanks balanced salt solution (HBSS). This mixture is layered on a sucrose density gradient, such as a Ficoll-Hypaque® gradient (specific gravity 1.08), and centrifuged at 1000×g for 25 minutes at room temperature or cooler. PBMC are obtained from a band at a plasma-Ficoll interface, separated and washed at least twice in a saline solution, such as HBSS. Contaminating red cells are lysed, such as by ACK lysis for 10 min at 37° C., and the PBMCs are washed twice in HBSS. The pellet of purified PBMCs is resuspended in complete medium, such as RPMI 1640 plus 20% human inactivated serum. Proliferative response of PBMC to allogeneic stimulation is determined in a two-way MLR performed in a 96-well microtiter plate. […] At the conclusion of the incubation tritiated thymidine is added (for example, 1 μCi/well of 40 to 60 Ci/mmole) and proliferation determined by liquid scintillation counting. […]

[5] = tested on: thymocyte; assay: Thymocyte proliferation stimulated by ConA and IL-1α; format: cell-based, mice (Balb/C); settings: drug added two hours prior to activation; FIG. 2
Description: (§1) A thymocyte costimulator assay is conducted to evaluate the inventive compounds to inhibit activation and proliferation of thymocytes caused by stimulation with Con A and interleukin-1 (IL-1), or interleukin-2 (IL-2). Thymuses are obtained from mice (e.g., female Balb/C mice) and the thymuses are removed and dissociated into culture media (e.g., RPMI 1640 without serum supplementation). The dissociated thymus tissue and cell suspension is transferred to centrifuge tubes and allowed to settle, washed with HBSS and resuspended in serum-supplemented culture media (e.g., RPMI 1640 with 10% fetal calf serum). Any contaminating red cells are lysed, and viable cells are resuspended and counted. Thymocytes are plated (e.g., 96-well plates at a density of 2×10^5 cells/well) and a stimulating agent, such as Con A, IL-1 (e.g., IL-1α) or IL-2 is added to the well. The cells are incubated for 4 days at 37° C. On the fourth day, the cells are pulsed with tritiated thymidine and cell proliferation determined. […]
(§2) Thymuses were obtained from normal, female Balb/C mice, dissociated, and plated into 96-well plates at a density of 2×10^5 cells/well. ConA and IL-1α were added to the wells and the cells were incubated for 4 days at 37° C. […] The cells were harvested and incorporated tritiated thymidine was determined in a liquid scintillation counter. […]

[6] = tested on: thymocyte; assay: Thymocyte proliferation stimulated by ConA and IL-2; format: cell-based, mice (Balb/C); settings: drug added two hours prior to activation; FIG. 3
Description: as §1, §2

[7] = tested on: human stromal cells; assay: Stromal cell proliferation stimulated by PDGF; format: cell-based; settings: for IC50: Homo sapiens; for inhibition of proliferation of human stromal cells stimulated with PDGF: in words
Description: Another assay for measuring activity of the inventive compounds involves determining PDGF (platelet derived growth factor) proliferative response using human-derived stromal cells. […] Two to three days later, the stromal cells are starved in serum-free media. Twenty four hours later, the cells are treated with a stimulating agent, such as PDGF-AA, PDGF-BB or basic FGF (fibroblast growth factor) with or without IL-1α or TNF, and tritiated thymidine. Cell proliferation is determined by liquid scintillation counting.
This assay is a model for restenosis and treatment of atherosclerosis and coronary artery disease. Stromal cells were starved in serum-free media for 24 hrs and then stimulated with PDGF-BB (50 ng/ml). The drugs were added at various concentrations one hour prior to PDGF stimulation. Tritiated thymidine was added for 24 hrs at the time of PDGF stimulation and proliferation determined by harvesting and counting the cells by liquid scintillation 24 hrs later.

[8] = tested on: adhesion of U937 cells to activated human umbilical vein endothelial cells (HUVEC); assay: Adhesion of U937 cells to TNF-activated HUVEC; format: cell-based; settings: HUVEC activated with 20 ng/ml human TNF for 12 hours; drug one hour prior to TNF; FIG. 5
Description: Another assay measures the effects of drug to inhibit adhesion of U937 cells to TNF-activated HUVEC cells In this experiment, HUVEC cells are induced with human TNF-α (20 ng/ml) and drug at varying concentrations for 14-16 hrs. U937 cells (a human monocyte cell line) are incubated and labeled with BCECF (10 μg/ml), a fluorescent dye. The U937 cell preparation (2.5×10^4 cells per well) is layered on top of the activated HUVEC cells. The cells are reverse spun to remove partially adhering and nonadhering U937 cell. The adherent U937 cells are measured by fluorescence on a fluorescent plate reader.
This example illustrates the effect of CT1573 to inhibit adhesion of U937 cells to activated human umbilical vein endothelial cells (HUVEC). HUVEC cells (4000/well, seeded 72 hrs in advance) were activated with 20 ng/ml of human TNF for 12 hours. CT1573 was added to the samples one hour prior to adding TNF. U937 cells were preloaded with a fluorescent dye (BCECF) were added to the HUVEC cells in each well for 30 min, the cells washed twice with PBS and adhesion measured after washing. Adhesion was measured on a fluorescence plate reader. Background adhesion of U937 cells to non-activated HUVEC is shown as a dashed line.

[9] = tested on: 293-EBNA cells; assay: Reporter gene expression (CMV promoter, secreted placental alkaline phosphatase) in tumor cells; format: cell-based; settings: compared with CT1501R, CT1567 and CT1590; absorbance at 405 nm; FIG. 7
Excerpt: FIG. 7 illustrates the effects of CT1590 (racemate N-(5,6-[…]) theobromine), CT1573, CT1567 and CT1501R (an alcohol-substituted xanthine) on cell proliferation as a measure of antitumor activity and the ability of each drug to inhibit gene expression in tumor cells. A specific plasmid construct employing a human CMV (cytomegalovirus) promoter directs the expression of a reporter gene (secreted human placental alkaline phosphatase) that was transformed into the tumor cell line 293-EBNA cells. The cells were treated with various concentrations of drug. Antitumor activity was measured in culture supernatants by expression of alkaline phasphatase reporter gene by absorbance at 405 nm of cell conditioned medium in the presence of substrate (e.g., ortho-nitrophenol phosphate) as described in Berger et al. (Gene 66:1-10, 1988).
This example illustrates the effects of CT1590 (racemate N-(5,6-ethylenedioxyhexyl) theobromine), CT1573, CT1567 and CT1501R (an alcohol-substituted xanthine) on cell proliferation as a measure of antitumor activity and the ability of each drug to inhibit gene expression in tumor cells. A specific plasmid construct employing a human CMV (cytomegalovirus) promoter directs the expression of a reporter gene (secreted human placental alkaline phosphatase) that was transformed into the tumor cell line 293-EBNA cells. […]

[10] = PDGF BB and IL-1α, FIG. 4, FIG. 9, read-out: IC50 to inhibit stromal cell proliferation stimulated by PDGF BB and IL-1α

SMILES	inhibition of cell surface expression of VCAM in HUVEC cells [3]	activity in mixed lymphocyte reaction (proliferative response of PBMC to allogeneic stimulation) [4]	IC50 [7, 10] [µM]	inhibition of proliferation of human stromal cells stimulated with PDGF [7]	further results
CC(O)CCCCn1c(=O)c2c(ncn2C)n(C)c1=O (stereo not drawn) [M1, 1-(5-hydroxyhexyl)-3,7-dimethylxanthine]	–	–	–	–	effect on chemotaxis in polymorphonuclear leukocytes [1]: stimulate chemotaxis; effect on cerebral blood flow [2]: increasing cerebral blood flow
Cn1cnc2c1c(=O)n(CCCCCC1OCCO1)c(=O)n2C [CT1567]	inhibit cell surface expression of VCAM	showed activity	–	–	inhibition of thymocyte proliferation stimulated by ConA and IL-1α [5]: inhibited thymocyte proliferation in a dose-response manner; inhibition of thymocyte proliferation stimulated by ConA and IL-2 [6]: inhibited thymocyte proliferation at the highest dose tested
Cn1cnc2c1c(=O)n(CCCCCCCCC1COCO1)c(=O)n2C (racemic) [CT1573, N-(9,10-methylenedioxydecyl)-3,7-dimethylxanthine]	inhibit cell surface expression of VCAM	–	< 100	strongly inhibit proliferation	IC50 ([7]; 1 h, PDGF-BB (50 ng/ml), drug one hour prior to stimulation, FIG. 4, read-out: IC50 to inhibit stromal cell proliferation stimulated by PDGF BB): < 100 µM; inhibition of adhesion of U937 cells to activated HUVEC [8]: reduced adhesion in a dose-dependent manner; inhibition of gene expression in tumor cells (antitumor activity) [9]: strongly inhibited gene expression
Cn1cnc2c1c(=O)n(CCCCC1COCO1)c(=O)n2C (racemic) [CT1590, N-(5,6-methylenedioxyhexyl)-3,7-dimethylxanthine]	–	showed activity	~100	strongly inhibit proliferation	–
